System: anti-type II collagen IgG1 and IgG2a
Assay: Serum anti-collagen antibody levels in mice with established CIA (ELISA)
Type: in vivo, mouse
Conditions: 10 days treatment
Description: ELISA plates (Nunc, Uxbridge, UK) were coated with 2 μg/ml of bovine CII dissolved overnight in Tris Buffer (0.05 M Tris, containing 0.2 M NaCl, pH 7.4) blocked with 2% bovine serum albumin (BSA) and then incubated with serial dilutions of test sera. A reference sample was included on each plate. Bound total IgG, IgG1 or IgG2a was detected by incubation with HRP-conjugated sheep anti-mouse IgG, IgG1 or IgG2a, followed by TMB substrate. Optical density was measured at 450 nm.

## COc1ccc(/C=C/C(=O)Nc2ccccc2C(=O)O)cc1OC [Tranilast, 2-[[3-(3,4-dimethoxyphenyl)-1-oxo-2-propenyl]amino]benzoic acid]
  levels of anti-type II collagen IgG1 and IgG2a in sera: no differences were observed

Reference: patent US20100041756A1, “METHOD OF MODULATING B CELL FUNCTIONING” (priority 2004, published 2010)
